The values below come from US12083129B2, “Treatment of breast cancer using combination therapies comprising an ATP competitive AKT inhibitor, a CDK4/6 inhibitor, and fulvestrant” (Genentech, Inc., priority 2019, dated 2024).

Each structure is given as a SMILES string.

The test system of this test is breast cancer cell lines. The test is described as follows: single agent sensitivity of breast cancer cell lines. In kind it is cell-based. As to conditions: FIG. 1A and 1B. Here is the method:
Cell lines were treated with agents described herein (e.g. ipatasertib, palbociclib, and fulvestrant). […] (See FIG. 1A and FIG. 1B). There was synergy between ipatasertib and palbociclib as show by the BLISS scores of FIGS. 2A, 2B, 2C, and 2D. […] The percent weight loss resulting from treatment is shown by FIGS. 8A and 8B.

In the case of `CC(C)NC[C@@H](C(=O)N1CCN(c2ncnc3c2[C@H](C)C[C@H]3O)CC1)c1ccc(Cl)cc1` [ipatasertib, (S)-2-(4-chlorophenyl)-1-(4-((5R,7R)-7-hydroxy-5-methyl-6,7-dihydro-5H-cyclopenta[d]pyrimidin-4-yl)piperazin-1-yl)-3-(isopropylamino)propan-1-one], the “single agent sensitivity of breast cancer cell lines” value was “differential single agent sensitivity”.
Take `CC(=O)c1c(C)c2cnc(Nc3ccc(N4CCNCC4)cn3)nc2n(C2CCCC2)c1=O` [palbociclib, 6-acetyl-8-cyclopentyl-5-methyl-2-{[5-(piperazin-1-yl)pyridin-2-yl]amino}pyrido[2,3-d]pyrimidin-7(8H)-one]: the “single agent sensitivity of breast cancer cell lines” value is on record as “differential single agent sensitivity”.
